The text below walks through data of the supplement of paper PMC10307832.

Assay in all cases: relative viability (nuclei count vs DMSO), 5 days (fraction); higher = more cells survive
Compound in the assay “GSK-J4 + Dasatinib”: CCOC(=O)CCNc1cc(N2CCc3ccccc3CC2)nc(-c2ccccn2)n1 [GSK-J4] + Cc1nc(Nc2ncc(C(=O)Nc3c(C)cccc3Cl)s2)cc(N2CCN(CCO)CC2)n1 [Dasatinib] (partner 0.075 µM)
The method in brief:
(§1)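 A single step with final 0.05% Triton X-100, 1% formaldehyde and 1 ug/ml Hoechst fixed the cells and stained nuclei 5 days after treatment. Lung cancer cell lines in 1536-well plates had been treated by pin tool the day after seeding with one drug alone or a fixed anchor-drug dose plus five library-drug doses (not always all listed) in √10 steps, and nuclei were counted on 4× images. Relative viability is the ratio of nuclei in treated wells to nuclei in vehicle wells, taken as the median of duplicate plates.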

Compound in the assay “AZ3146 + Trametinib”: CN1CCC(CC1)OC2=CC(=C(C=C2)NC3=NC=C4C(=N3)N(C(=O)N4C)C5CCCC5)OC [AZ3146] + CC(=O)Nc1cccc(-n2c(=O)n(C3CC3)c(=O)c3c(Nc4ccc(I)cc4F)n(C)c(=O)c(C)c32)c1 [Trametinib] (partner 0.02 µM)
Summed up: as §1

Compound in the assay “AZ3146 + Navitoclax”: CN1CCC(CC1)OC2=CC(=C(C=C2)NC3=NC=C4C(=N3)N(C(=O)N4C)C5CCCC5)OC [AZ3146] + CC1(C)CCC(c2ccc(Cl)cc2)=C(CN2CCN(c3ccc(C(=O)NS(=O)(=O)c4ccc(N[C@H](CCN5CCOCC5)CSc5ccccc5)c(S(=O)(=O)C(F)(F)F)c4)cc3)CC2)C1 [Navitoclax] (partner 0.5 µM)
Summed up: as §1

Compound in the assay “AZ3146 + OSI-027”: CN1CCC(CC1)OC2=CC(=C(C=C2)NC3=NC=C4C(=N3)N(C(=O)N4C)C5CCCC5)OC [AZ3146] + COc1cccc2cc(-c3nc([C@H]4CC[C@H](C(=O)O)CC4)n4ncnc(N)c34)[nH]c12 [OSI-027] (partner 0.5 µM)
Summed up:
as §1

With UMC-11, the relative viability with GSK-J4 + Dasatinib (first compound 0.5 µM) stood at 0.43; with GSK-J4 + Dasatinib (first compound 5 µM), 0.43; in the assay with GSK-J4 + Dasatinib (first compound 15.81 µM), 0.392; with GSK-J4 + Dasatinib (first compound 50 µM), 0.231; in the assay with AZ3146 + Trametinib (first compound 0.08 µM), 0.575; in the assay with AZ3146 + Trametinib (first compound 0.253 µM), 0.725. Also, the relative viability with AZ3146 + Trametinib (first compound 0.8 µM) worked out at 0.629; with AZ3146 + Trametinib (first compound 2.53 µM), 0.626; with AZ3146 + Trametinib (first compound 8 µM), 0.313; with AZ3146 + Navitoclax (first compound 0.08 µM), 0.32; in the assay with AZ3146 + Navitoclax (first compound 0.253 µM) it was 0.27; with AZ3146 + Navitoclax (first compound 0.8 µM), 0.302. Also, the relative viability with AZ3146 + Navitoclax (first compound 2.53 µM) came to 0.312; with AZ3146 + Navitoclax (first compound 8 µM), 0.252; in the assay with AZ3146 + OSI-027 (first compound 0.08 µM), 0.462; with AZ3146 + OSI-027 (first compound 0.253 µM), 0.46; with AZ3146 + OSI-027 (first compound 0.8 µM) it was 0.425; with AZ3146 + OSI-027 (first compound 2.53 µM) it was 0.475. In the assay with AZ3146 + OSI-027 (first compound 8 µM), the relative viability stood at 0.314.
